Test results taken from ChEMBL document CHEMBL1201861, “Genomics of Drug Sensitity in Cancer screening data, Wellcome Trust Sanger Institute”.

The compounds below were run on MPP-89 (assay: cells). Conditions: Homo sapiens, MPP-89.
Format: functional, cell-based, Homo sapiens
Description: SANGER: Inhibition of human MPP-89 cell growth in a cell viability assay.
With `C=CC(=O)N1CCCC(Nc2nc(Nc3ccc(N(C)C(=O)CC)cc3)nc3[nH]cnc23)C1` (stereo unspecified) the IC50 was over 10.2 µM.

These compounds were tested on MZ2-MEL (assay: cells). Conditions: Homo sapiens, MZ2-MEL.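 Note: growth inhibition of MZ2-MEL cells read out with a cell viability assay.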
Format: functional, cell-based, Homo sapiens
Description: SANGER: Inhibition of human MZ2-MEL cell growth in a cell viability assay.
For `C=CC(=O)N1CCCC(Nc2nc(Nc3ccc(N(C)C(=O)CC)cc3)nc3[nH]cnc23)C1` (stereo unspecified), the IC50 was over 10.2 µM.

Each compound was assayed on NB5 (assay: cells). Conditions: Homo sapiens, NB5.
Format: functional, cell-based, Homo sapiens
Description: SANGER: Inhibition of human NB5 cell growth in a cell viability assay.
`C=CC(=O)N1CCCC(Nc2nc(Nc3ccc(N(C)C(=O)CC)cc3)nc3[nH]cnc23)C1` (stereo unspecified) gave an IC50 of over 10.2 µM.

These compounds were tested on NB6 (assay: cells). Conditions: Homo sapiens, NB6.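 Note: growth inhibition of NB6 cells, read out by a cell viability assay.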
Format: functional, cell-based, Homo sapiens
Description: SANGER: Inhibition of human NB6 cell growth in a cell viability assay.
Work on `C=CC(=O)N1CCCC(Nc2nc(Nc3ccc(N(C)C(=O)CC)cc3)nc3[nH]cnc23)C1` (stereo unspecified) yielded an IC50 of over 10.2 µM.

These compounds were tested on NCI-H1304 (assay: cells). Conditions: Homo sapiens, NCI-H1304.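 Note: growth inhibition of the cancer cell line, measured in a cell viability assay.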
Format: functional, cell-based, Homo sapiens
Description: SANGER: Inhibition of human NCI-H1304 cell growth in a cell viability assay.
Compound `C=CC(=O)N1CCCC(Nc2nc(Nc3ccc(N(C)C(=O)CC)cc3)nc3[nH]cnc23)C1` (stereo unspecified) has an IC50 of over 10.2 µM.

What follows are compounds tested on NCI-H1395 (assay: cells). Conditions: Homo sapiens, NCI-H1395.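 Note: cell viability assay read-out quantifying reduced proliferation of human NCI-H1395 cells.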
Format: functional, cell-based, Homo sapiens
Description: SANGER: Inhibition of human NCI-H1395 cell growth in a cell viability assay.
Work on `C=CC(=O)N1CCCC(Nc2nc(Nc3ccc(N(C)C(=O)CC)cc3)nc3[nH]cnc23)C1` (stereo unspecified) yielded an IC50 of over 10.2 µM.

These compounds were tested on NCI-H2126 (assay: cells). Conditions: Homo sapiens, NCI-H2126.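 Note: growth inhibition of the cancer cell line, determined with a cell viability readout.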
Format: functional, cell-based, Homo sapiens
Description: SANGER: Inhibition of human NCI-H2126 cell growth in a cell viability assay.
Work on `C=CC(=O)N1CCCC(Nc2nc(Nc3ccc(N(C)C(=O)CC)cc3)nc3[nH]cnc23)C1` (stereo unspecified) yielded an IC50 of over 10.2 µM.

Each compound was assayed on NCI-H747 (assay: cells). Conditions: Homo sapiens, NCI-H747.
Format: functional, cell-based, Homo sapiens
Description: SANGER: Inhibition of human NCI-H747 cell growth in a cell viability assay.
`C=CC(=O)N1CCCC(Nc2nc(Nc3ccc(N(C)C(=O)CC)cc3)nc3[nH]cnc23)C1` (stereo unspecified) was tested, and the IC50 was over 10.2 µM.

The compounds below were run on NKM-1 (assay: cells). Conditions: Homo sapiens, NKM-1.
Format: functional, cell-based, Homo sapiens
Description: SANGER: Inhibition of human NKM-1 cell growth in a cell viability assay.
With `C=CC(=O)N1CCCC(Nc2nc(Nc3ccc(N(C)C(=O)CC)cc3)nc3[nH]cnc23)C1` (stereo unspecified) the IC50 was over 10.2 µM.

The compounds below were run on OCUB-M (assay: cells). Conditions: Homo sapiens.
Format: functional, cell-based
Description: SANGER: Inhibition of human OCUB-M cell growth in a cell viability assay.
For `C=CC(=O)N1CCCC(Nc2nc(Nc3ccc(N(C)C(=O)CC)cc3)nc3[nH]cnc23)C1` (stereo unspecified), the IC50 was 2.1 µM.

The compounds below were run on OVCAR-4 (assay: cells). Conditions: Homo sapiens, OVCAR-4.
Format: functional, cell-based, Homo sapiens
Description: SANGER: Inhibition of human OVCAR-4 cell growth in a cell viability assay.
`C=CC(=O)N1CCCC(Nc2nc(Nc3ccc(N(C)C(=O)CC)cc3)nc3[nH]cnc23)C1` (stereo unspecified) was tested, and the IC50 was over 10.2 µM.

Each compound was assayed on RCC10RGB (assay: cells). Conditions: Homo sapiens, RCC10RGB.
Format: functional, cell-based, Homo sapiens
Description: SANGER: Inhibition of human RCC10RGB cell growth in a cell viability assay.
Compound `C=CC(=O)N1CCCC(Nc2nc(Nc3ccc(N(C)C(=O)CC)cc3)nc3[nH]cnc23)C1` (stereo unspecified) has an IC50 of over 10.2 µM.

These compounds were tested on RXF 393 (assay: cells). Conditions: Homo sapiens, RXF 393.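 Note: growth inhibition of human RXF 393 cells, read out with a cell viability assay.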
Format: functional, cell-based, Homo sapiens
Description: SANGER: Inhibition of human RXF393 cell growth in a cell viability assay.
`C=CC(=O)N1CCCC(Nc2nc(Nc3ccc(N(C)C(=O)CC)cc3)nc3[nH]cnc23)C1` (stereo unspecified) showed an IC50 of over 10.2 µM.

These compounds were tested on SF-126 (assay: cells). Conditions: Homo sapiens, SF-126.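 Note: growth inhibition of human SF126 cells, read out with a cell viability assay.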
Format: functional, cell-based, Homo sapiens
Description: SANGER: Inhibition of human SF126 cell growth in a cell viability assay.
For `C=CC(=O)N1CCCC(Nc2nc(Nc3ccc(N(C)C(=O)CC)cc3)nc3[nH]cnc23)C1` (stereo unspecified), the IC50 was over 10.2 µM.

The compounds below were run on SH-4 (assay: cells). Conditions: Homo sapiens.
Format: functional, cell-based
Description: SANGER: Inhibition of human SH-4 cell growth in a cell viability assay.
With `C=CC(=O)N1CCCC(Nc2nc(Nc3ccc(N(C)C(=O)CC)cc3)nc3[nH]cnc23)C1` (stereo unspecified) the IC50 was over 10.2 µM.

These compounds were tested on SK-MEL-1 (assay: cells). Conditions: Homo sapiens, SK-MEL-1.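 Note: growth inhibition of human SK-MEL-1 cells, read out by a cell viability assay.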
Format: functional, cell-based, Homo sapiens
Description: SANGER: Inhibition of human SK-MEL-1 cell growth in a cell viability assay.
`C=CC(=O)N1CCCC(Nc2nc(Nc3ccc(N(C)C(=O)CC)cc3)nc3[nH]cnc23)C1` (stereo unspecified) was tested, and the IC50 was over 10.2 µM.

These compounds were tested on SNU-C2B (assay: cells). Conditions: Homo sapiens.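 Note: cell viability readout used to measure compound-driven suppression of SNU-C2B cell proliferation, IC50 marking half-maximal growth inhibition.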
Format: functional, cell-based
Description: SANGER: Inhibition of human SNU-C2B cell growth in a cell viability assay.
In the case of `C=CC(=O)N1CCCC(Nc2nc(Nc3ccc(N(C)C(=O)CC)cc3)nc3[nH]cnc23)C1` (stereo unspecified), the IC50 is reported as over 10.2 µM.

These compounds were tested on ALL-PO (assay: cells). Conditions: Homo sapiens, ALL-PO.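 Note: growth inhibition of ALL-PO cells, read out by a cell viability assay.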
Format: functional, cell-based, Homo sapiens
Description: SANGER: Inhibition of human ALL-PO cell growth in a cell viability assay.
`C=CC(=O)N1CCCC(Nc2nc(Nc3ccc(N(C)C(=O)CC)cc3)nc3[nH]cnc23)C1` (stereo unspecified) gave an IC50 of over 10.2 µM.

What follows are compounds tested on BB49-HNC (assay: cells). Conditions: Homo sapiens, BB49-HNC.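 Note: cell viability assay read-out, reported as inhibition of BB49-HNC cell growth.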
Format: functional, cell-based, Homo sapiens
Description: SANGER: Inhibition of human BB49-HNC cell growth in a cell viability assay.
Compound `C=CC(=O)N1CCCC(Nc2nc(Nc3ccc(N(C)C(=O)CC)cc3)nc3[nH]cnc23)C1` (stereo unspecified) has an IC50 of over 10.2 µM.

The compounds below were run on BE-13 (assay: cells). Conditions: Homo sapiens, BE-13.
Format: functional, cell-based, Homo sapiens
Description: SANGER: Inhibition of human BE-13 cell growth in a cell viability assay.
`C=CC(=O)N1CCCC(Nc2nc(Nc3ccc(N(C)C(=O)CC)cc3)nc3[nH]cnc23)C1` (stereo unspecified) gave an IC50 of over 10.2 µM.

What follows are compounds tested on C2BBe1 (assay: cells). Conditions: Homo sapiens, C2BBe1.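 Note: growth inhibition of C2BBe1 cells, read out through a viability assay.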
Format: functional, cell-based, Homo sapiens
Description: SANGER: Inhibition of human C2BBe1 cell growth in a cell viability assay.
Work on `C=CC(=O)N1CCCC(Nc2nc(Nc3ccc(N(C)C(=O)CC)cc3)nc3[nH]cnc23)C1` (stereo unspecified) yielded an IC50 of over 10.2 µM.

These compounds were tested on TE-10 (assay: cells). Conditions: Homo sapiens, TE-10.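 Note: growth inhibition of TE-10 cells, measured by a cell viability assay.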
Format: functional, cell-based, Homo sapiens
Description: SANGER: Inhibition of human TE-10 cell growth in a cell viability assay.
Work on `C=CC(=O)N1CCCC(Nc2nc(Nc3ccc(N(C)C(=O)CC)cc3)nc3[nH]cnc23)C1` (stereo unspecified) yielded an IC50 of over 10.2 µM.

Each compound was assayed on TGBC24TKB (assay: cells). Conditions: Homo sapiens.
Format: functional, cell-based
Description: SANGER: Inhibition of human TGBC24TKB cell growth in a cell viability assay.
`C=CC(=O)N1CCCC(Nc2nc(Nc3ccc(N(C)C(=O)CC)cc3)nc3[nH]cnc23)C1` (stereo unspecified) was tested, and the IC50 was over 10.2 µM.

Each compound was assayed on VA-ES-BJ (assay: cells). Conditions: Homo sapiens, VA-ES-BJ.
Format: functional, cell-based, Homo sapiens
Description: SANGER: Inhibition of human VA-ES-BJ cell growth in a cell viability assay.
`C=CC(=O)N1CCCC(Nc2nc(Nc3ccc(N(C)C(=O)CC)cc3)nc3[nH]cnc23)C1` (stereo unspecified) gave an IC50 of over 10.2 µM.

What follows are compounds tested on no-11 (assay: cells). Conditions: Homo sapiens.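 Note: growth inhibition of human NO-11 cells, read out with a cell viability assay.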
Format: functional, cell-based, Homo sapiens
Description: SANGER: Inhibition of human no-11 cell growth in a cell viability assay.
With `C=CC(=O)N1CCCC(Nc2nc(Nc3ccc(N(C)C(=O)CC)cc3)nc3[nH]cnc23)C1` (stereo unspecified) the IC50 was over 10.2 µM.

The compounds below were run on COLO-684 (assay: cells). Conditions: Homo sapiens, COLO-684.
Format: functional, cell-based, Homo sapiens
Description: SANGER: Inhibition of human COLO-684 cell growth in a cell viability assay.
Work on `C=CC(=O)N1CCCC(Nc2nc(Nc3ccc(N(C)C(=O)CC)cc3)nc3[nH]cnc23)C1` (stereo unspecified) yielded an IC50 of over 10.2 µM.
